Experiments:
[1] = effect on acute exudative and chronical proliferative phases of inflammation; format: in vivo, mice
Description: The effect of the active principle on the acute exudative and chronical proliferative phases of inflammation in doses of 10 and 50 mg/kg has been studied upon per os administration to mice.

[2] = cardiorhythmic effect on the aconitine model of arrhythmia; format: in vivo, rat; conditions: intravenous, 10 and 50 mg/kg
Description: The cardiorhythmic effect of the active principle has been studied on the rat's aconitine model of arrhythmia upon its intravenous administration in the doses of 10 and 50 mg/kg.

[3] = tested on: HV (virus of the herpes group); assay: antiviral properties in vitro in a culture of cells of fibroblasts of a chicken embryo (virus-suppressing effect, cytopathogenic effect); format: cell-based; conditions: 10 μg/ml; 100 TCD50 HV
Description: The study of antiviral properties of the active principle has been carried out in in vitro experiments in a culture of cells of fibroblasts of a chicken embryo following a commonly employed procedure for primary screening of antiviral preparations. Cells are grown in flasks or test-tubes on the nutrient medium 199 with the addition of 5 to 10 vol.% of cattle serum. Then, for the contact of the virus with cells, into the flasks a virus-containing material is added in doses of 1, 10, 100 and 1,000 TCD50. […] Flasks or test-tubes are then subjected to thermosetting at the temperature of 37° C. The virus-suppressing effect is determined for 5 days by way of comparison of the presence of cytopathogenic effect in the control and test flasks and test-tubes. As the control use is made of: control of the single layer of cells, the control of the active principle without virus and the control of the virus without the active principle.

[4] = effect on the intensity of bile secretion, acute tests; format: in vivo, cats; conditions: 20 and 50 mg/kg
Source text: In acute tests on cats the effect of the active principle on the intensity of bile secretion has been studied.

[5] = cardiological effect / electrocardiographic characteristics; format: in vivo, rabbits; conditions: for increase of amplitude of cardiac contractions: P=0.05
Source text: The cardiological effect of the active principle has been studied in experiments on an isolated cat's heart; the effect on electrocardiographic characteristics has been studied in experiments on rabbits; the vasodilative effect--on vessels of an isolated rabbit's ear; the spasmolytic effect--on acetylcholine and barium spasms of smooth muscles of an isolated section of a rat's small intestine.
The studies have shown that upon the intravenous administration to rabbits of the active principle in the dose of 20 mg/kg it causes increased amplitude of cardiac contractions by 34% (P=0.05), in the dose of 50 mg/kg--by 41% (P=0.05); rarefaction of the rhythm of cardiac contractions in rabbits by 10-18% on the average and increase of the voltage of the peak P by 32%. […] A slight increase of the voltage of the peak P on the average by 20% is observed.

[6] = neurotropic activity: influence upon the somnific effects of hexenal or chloralhydrate; format: in vivo; conditions: per os, 1, 10 and 100 mg/kg
Description: The neurotropic activity of the active principle is assessed through its influence upon the somnific effects of hexenal or chloralhydrate. The substance is introduced per os in the doses of 1, 10 and 100 mg/kg.

[7] = tested on: herpetic encephalitis (HV); assay: experimental virus model of herpetic encephalitis of white mice; format: in vivo; conditions: for Average life span: control 4.78 ± 0.46; for Life span: control 12.7 ± 2.6; for Survival, %: control 70
Description: The chemotherapeutic effect of the active principle and the pharmaceutical composition on the whole has been studied on an experimental virus model of herpetic encephalitis of white mice. In the experiments more than 1,500 animals were used. To obtain the experimental encephalitis, white mice weighing 8-10 g have been infected intracerebrally. Prior to the infection the animal head skin is smeared with iodine, then ten-times dilutions of the virus-containing liquid in the volume of 0.03 ml are injected by means of a tuberculin syringe into the supraorbital area near the front median line to a depth of 1-2 mm directly into the brain. 3 to 7 days thereafter in the animals there were observed the disease signs (excitation, coordination disturbance, adynamia, paresis and paralysis) which were rapidly intensified and terminated in death. The experiments were assessed by the animal survival (in percent) and by the average life span of the test animals as compared to the control.
For treatment purposes the active principle or the medicated compound in the form of tablets is administered to the infected animals per os by means of a gastric tube as an aqueous suspension in the volume of 0.5 ml in doses of 20 to 500 mg/kg of the body weight 1 or 2 times per day. The tests have been carried out according to three schemes. In the first scheme, in order to preliminarily saturate the animal's organism with the active principle or the preparation were administered to the animals 1-2 days before the infection (preventive test). In the second scheme, to reveal the therapeutic effect of the active principle or the pharmaceutical composition, the compositions were introduced on the infection day and one or two days after the infection. In the third scheme (treatment-prophylaxis) the active principle or the medicated compound is administered the day before the infection or on the infection day, in both cases the treatment of the animal is continued for 5 to 7 days after the infection.
The most advantageous chemotherapeutic effect of the active principle or the pharmaceutical composition is manifested under the conditions of the treatment-prophylaxis application (third scheme).

teratogenic activity = format: in vivo, rats; conditions: 10 and 100 mg/kg per os daily for 30 days
Description: The study of the teratogenic activity of the active principle has been carried out on 15 couples of adult rats weighing 350 g divided into 3 groups of 5 couples in each. The females of the first group were daily administred 10 mg/kg of the active principle per os for 30 days until the birth of small rats; the females of the second group were administered 100 mg/kg of the active principle during the same period; the females of the third group were the control.

[8] = intra-stomach, 50 and 150 mg/kg
[9] = once a day, 0.04 mg/mice, P above 0.5
[10] = once a day, 0.2 mg/mice, P above 0.25
[11] = once a day, 1 mg/mice, P above 0.25
[12] = once a day, 5 mg/mice, P above 0.5
[13] = two times a day, 0.04 mg/mice, P above 0.1
[14] = two times a day, 0.2 mg/mice, P below 0.05
[15] = two times a day, 1 mg/mice, P below 0.05
[16] = two times a day, 5 mg/mice, P above 0.1

Structure (SMILES): O=c1c2cc(O)c(O)cc2oc2cc(O)c([C@@H]3O[C@H](CO)[C@@H](O)[C@H](O)[C@H]3O)c(O)c12 [active principle, 2-C-β-D-glucopyranosyl-1,3,6,7-tetraoxyxanthone]
- exudative phase in chronical proliferative inflammation ([1]; model of chronical proliferative inflammation): somewhat suppresses
- development of the exudative phase of inflammation ([1]; per os, 50 mg/kg): suppresses the development of the exudative phase of inflammation
- antiphlogistic activity relative to formalin edema ([1]; per os, 50 mg/kg, P below 0.005): 12.7
- antiphlogistic activity relative to dextran edema ([1]; per os, 50 mg/kg, P below 0.05): 16.5
- lowering of penetration of skin vessels ([1]; per os, 50 mg/kg, P below 0.05): 15%
- antiphlogistic effect ([1]; per os, 10 and 50 mg/kg): slight antiphlogistic effect
- formation of granulation-fibrous tissue ([1]; proliferative stage of chronical inflammation): retards the formation of a granulation-fibrous tissue
- cardiorhythmic effect [2]: no cardiorhythmic effect
- virus-suppressing effect [3]: high virus-suppressing effect
- bile secretion intensity [4]: does not increase
- effect on duration of intervals of the cardiac cycle [5, 8]: no substantial effect
- effect on the rhythm of cardiac contractions [5, 8]: no substantial effect
- increase of the voltage of the peak P ([5]; intra-stomach, 50 and 150 mg/kg, on the average): 20%
- increase of the voltage of the peak P ([5]; intravenous, rabbits): 32%
- increase of amplitude of cardiac contractions ([5]; intravenous, rabbits, 20 mg/kg): 34%
- increase of amplitude of cardiac contractions ([5]; intravenous, rabbits, 50 mg/kg): 41%
- rarefaction of the rhythm of cardiac contractions ([5]; intravenous, rabbits, on the average): 10-18%
- cardiostimulant effect ([5]; rabbit, in vivo): slight cardiostimulant effect
- effect on duration of sleep caused by chloralhydrate [6]: no substantial effect
- effect on duration of sleep caused by hexenal [6]: no substantial effect
- mutagenous activity (mutagenous activity): no mutagenous activity
- chemotherapeutic effect ([7]; administration in maximum shortest time of the infection (Table 2)): highest
- chemotherapeutic effect ([7]; administration two times a day (Table 1)): highest, statistically certain chemotherapeutic effect
- chemotherapeutic effect (time of death vs control) ([7]; first two schemes (preventive; therapeutic), per os): impossible to reveal statistically certain chemotherapeutic effect
- Average life span ([7]; on the infection day, 1 mg/mice, P above 0.25): 5.16 ± 0.91 days
- Average life span ([7]; on the infection day, 2 mg/mice, P above 0.5): 5.0 ± 0.56 days
- Average life span ([7]; on the infection day, 5 mg/mice, P below 0.05): 6.41 ± 0.71 days
- Life span [7, 9]: 13.3 ± 2.5 days
- Survival, % [7, 9]: 80%
- Life span [7, 10]: 14.0 ± 2.3 days
- Survival, % [7, 10]: 90%
- Life span [7, 11]: 14.0 ± 2.2 days
- Survival, % [7, 11]: 90%
- Life span [7, 12]: 13.1 ± 2.7 days
- Survival, % [7, 12]: 70%
- Average life span ([7]; one day before infection, 1 mg/mice, P 0.05): 5.6 ± 0.82 days
- Average life span ([7]; one day before infection, 2 mg/mice, P below 0.05): 6.05 ± 0.83 days
- Average life span ([7]; one day before infection, 5 mg/mice, P below 0.05): 6.13 ± 1.04 days
- Life span [7, 13]: 14.1 ± 0.9 days
- Survival, % [7, 13]: 90%
- Life span [7, 14]: 15.0 days
- Survival, % [7, 14]: 100%
- Life span [7, 15]: 15.0 days
- Survival, % [7, 15]: 100%
- Life span [7, 16]: 14.3 ± 2.5 days
- Survival, % [7, 16]: 90%
- teratogenic properties (teratogenic activity): no teratogenic properties

— patent US4436732A, “Medicated compound for treating diseases infected by virus of the herpes group” (priority 1981, dated 1984)
